# Assay results: ChEMBL document CHEMBL1955827, “Influence of ring size on the cognition-enhancing activity of DM235 and MN19, two potent nootropic drugs” (Bioorg Med Chem Lett, 2012)
# Activity calls are given as the source filed them. The rule behind the calls is not given here.
# Legend:
# [1] = test system: Mus musculus; test: Neurotoxicity in mouse assessed as effect on inspection activity at 1 mg/kg, ip by hole-board test; type: toxicity, organism-based; design: dose 1 mg/kg, route intraperitoneal; settings: in vivo
# [2] = test system: Mus musculus; test: Nootropic activity against scopolamine-induced amnesia in mouse assessed as increase in latency time to enter dark room at 1 mg/kg, ip administered 20 mins prior to test by passive avoidance test (reference value: 91.7 sec); type: functional; settings: route intraperitoneal
# [3] = test system: Mus musculus; test: Neurotoxicity in mouse assessed as effect on gross behavior at 1 mg/kg, ip by rota-rod test; type: toxicity, organism-based; design: dose 1 mg/kg, route intraperitoneal; settings: in vivo
# [4] = test system: Mus musculus; test: Neurotoxicity in mouse assessed as effect on spontaneous motility at 1 mg/kg, ip by hole-board test; type: toxicity, organism-based; design: dose 1 mg/kg, route intraperitoneal; settings: in vivo
# [5] = test system: Mus musculus; test: Neurotoxicity in mouse assessed as effect on motor coordination at 1 mg/kg, ip by rotarod test; type: toxicity, organism-based; design: dose 1 mg/kg, route intraperitoneal; settings: in vivo
# [6] = test system: Mus musculus; test: Neurotoxicity in mouse assessed as effect on inspection activity at 10 mg/kg, ip by hole-board test; type: toxicity, organism-based; design: dose 10 mg/kg, route intraperitoneal; settings: in vivo
# [7] = test system: Mus musculus; test: Neurotoxicity in mouse assessed as effect on gross behaviour at 10 mg/kg, ip by rotarod test; type: toxicity, organism-based; design: dose 10 mg/kg, route intraperitoneal; settings: in vivo
# [8] = test system: Mus musculus; test: Neurotoxicity in mouse assessed as effect on motor coordination at 10 mg/kg, ip by rotarod test; type: toxicity, organism-based; design: dose 10 mg/kg, route intraperitoneal; settings: in vivo
# [9] = test system: Mus musculus; test: Nootropic activity against scopolamine-induced amnesia in mouse assessed as increase in latency time to enter dark room at 10 mg/kg, ip administered 20 mins prior to test by passive avoidance test (reference value: 91.7 sec); type: functional; settings: route intraperitoneal
# [10] = test system: Mus musculus; test: Neurotoxicity in mouse assessed as effect on spontaneous motility at 10 mg/kg, ip by hole-board test; type: toxicity, organism-based; design: dose 10 mg/kg, route intraperitoneal; settings: in vivo
# [11] = test system: Mus musculus; test: Neurotoxicity in mouse assessed as effect on inspection activity at 0.1 mg/kg, ip by hole-board test; type: toxicity, organism-based; design: dose 0.1 mg/kg, route intraperitoneal; settings: in vivo
# [12] = test system: Mus musculus; test: Neurotoxicity in mouse assessed as effect on motor coordination at 0.1 mg/kg, ip by rotarod test; type: toxicity, organism-based; design: dose 0.1 mg/kg, route intraperitoneal; settings: in vivo
# [13] = test system: Mus musculus; test: Nootropic activity against scopolamine-induced amnesia in mouse assessed as increase in latency time to enter dark room at 0.1 mg/kg, ip administered 20 mins prior to test by passive avoidance test (reference value: 91.7 sec); type: functional; settings: route intraperitoneal
# [14] = test system: Mus musculus; test: Neurotoxicity in mouse assessed as effect on spontaneous motility at 0.1 mg/kg, ip by hole-board test; type: toxicity, organism-based; design: dose 0.1 mg/kg, route intraperitoneal; settings: in vivo
# [15] = test system: Mus musculus; test: Neurotoxicity in mouse assessed as effect on gross behavior at 0.1 mg/kg, ip by rota-rod test; type: toxicity, organism-based; design: dose 0.1 mg/kg, route intraperitoneal; settings: in vivo
# [16] = test system: Mus musculus; test: Nootropic activity against scopolamine-induced amnesia in mouse assessed as increase in latency period to enter dark room up to 10 mg/kg, ip administered 20 mins prior to test by passive avoidance test (reference value: 91.7 sec); type: functional, organism-based; design: dose 10 mg/kg
# [17] = test system: Mus musculus; test: Neurotoxicity in mouse assessed as effect on motor coordination at 0.01 mg/kg, ip by rotarod test; type: toxicity, organism-based; design: dose 0.01 mg/kg, route intraperitoneal; settings: in vivo
# [18] = test system: Mus musculus; test: Neurotoxicity in mouse assessed as effect on gross behavior at 0.01 mg/kg, ip by rota-rod test; type: toxicity, organism-based; design: dose 0.01 mg/kg, route intraperitoneal; settings: in vivo
# [19] = test system: Mus musculus; test: Neurotoxicity in mouse assessed as effect on inspection activity at 0.01 mg/kg, ip by hole-board test; type: toxicity, organism-based; design: dose 0.01 mg/kg, route intraperitoneal; settings: in vivo
# [20] = test system: Mus musculus; test: Nootropic activity against scopolamine-induced amnesia in mouse assessed as increase in latency time to enter dark room at 0.01 mg/kg, ip administered 20 mins prior to test by passive avoidance test (reference value: 91.7 sec); type: functional; settings: route intraperitoneal
# [21] = test system: Mus musculus; test: Neurotoxicity in mouse assessed as effect on spontaneous motility at 0.01 mg/kg, ip by hole-board test; type: toxicity, organism-based; design: dose 0.01 mg/kg, route intraperitoneal; settings: in vivo
# [22] = test system: Mus musculus; test: Nootropic activity against scopolamine-induced amnesia in mouse assessed as increase in latency time to enter dark room at 0.001 mg/kg, ip administered 20 mins prior to test by passive avoidance test (reference value: 91.7 sec); type: functional; settings: route intraperitoneal
# [23] = test system: Mus musculus; test: Neurotoxicity in mouse assessed as effect on spontaneous motility at 0.001 mg/kg, ip by hole-board test; type: toxicity, organism-based; design: dose 0.001 mg/kg, route intraperitoneal; settings: in vivo
# [24] = test system: Mus musculus; test: Neurotoxicity in mouse assessed as effect on gross behaviour at 0.001 mg/kg, ip by rotarod test; type: toxicity, organism-based; design: dose 0.001 mg/kg, route intraperitoneal; settings: in vivo
# [25] = test system: Mus musculus; test: Neurotoxicity in mouse assessed as effect on motor coordination at 0.001 mg/kg, ip by rotarod test; type: toxicity, organism-based; design: dose 0.001 mg/kg, route intraperitoneal; settings: in vivo
# [26] = test system: Mus musculus; test: Neurotoxicity in mouse assessed as effect on inspection activity at 0.001 mg/kg, ip by hole-board test; type: toxicity, organism-based; design: dose 0.001 mg/kg, route intraperitoneal; settings: in vivo
# [27] = test system: Mus musculus; test: Neurotoxicity in mouse assessed as effect on spontaneous motility at 30 mg/kg, ip by hole-board test; type: toxicity, organism-based; design: dose 30 mg/kg, route intraperitoneal; settings: in vivo
# [28] = test system: Mus musculus; test: Neurotoxicity in mouse assessed as effect on inspection activity at 30 mg/kg, ip by hole-board test; type: toxicity, organism-based; design: dose 30 mg/kg, route intraperitoneal; settings: in vivo
# [29] = test system: Mus musculus; test: Neurotoxicity in mouse assessed as effect on motor coordination at 30 mg/kg, ip by rotarod test; type: toxicity, organism-based; design: dose 30 mg/kg, route intraperitoneal; settings: in vivo
# [30] = test system: Mus musculus; test: Neurotoxicity in mouse assessed as effect on gross behavior at 30 mg/kg, ip by rota-rod test; type: toxicity, organism-based; design: dose 30 mg/kg, route intraperitoneal; settings: in vivo
smiles,measurement,setting,value
CC(=O)N1CCC(NC(=O)c2ccccc2)C1 (stereo not drawn),Activity,[1],Non-toxic
same,Time,[2],48.1 s
same,Activity,[3],Non-toxic
same,Activity,[4],Non-toxic
same,Activity,[5],Non-toxic
CCC(=O)NC1CN(S(=O)(=O)c2ccc(F)cc2)C1,Activity,[6],Non-toxic
same,Activity,[7],Non-toxic
same,Activity,[8],Non-toxic
same,Time,[9],44.1 s
same,Activity,[10],Non-toxic
CCC(=O)NC1CCN(S(=O)(=O)c2ccc(F)cc2)C1 (stereo not drawn),Activity,[11],Non-toxic
same,Activity,[12],Non-toxic
same,Time,[13],48.8 s
same,Activity,[14],Non-toxic
same,Activity,[15],Non-toxic
CCC(=O)NC1CN(C(=O)c2ccccc2)C1,Activity,[16],inactive
CC(=O)NC1CCCN(C(=O)c2ccccc2)CC1 (stereo not drawn),Activity,[16],inactive
CCC(=O)N1CCCN(S(=O)(=O)c2ccc(F)cc2)CCC1,Activity,[16],inactive
CC(=O)NC1CCN(S(=O)(=O)c2ccc(F)cc2)CC1 [SAPUNIFIRAM],Activity,[17],Non-toxic
same,Activity,[18],Non-toxic
same,Activity,[19],Non-toxic
same,Time,[20],76.1 s
same,Activity,[21],Non-toxic
CCC(=O)N1CCCN(C(=O)c2ccccc2)CCC1,Activity,[16],inactive
CC(=O)N1CCCC(NC(=O)c2ccccc2)CC1 (stereo not drawn),Activity,[1],Non-toxic
same,Time,[2],70.4 s
same,Activity,[3],Non-toxic
same,Activity,[4],Non-toxic
same,Activity,[5],Non-toxic
CCC(=O)N[C@H]1CCN(S(=O)(=O)c2ccc(F)cc2)C1,Activity,[1],Non-toxic
same,Time,[2],56.6 s
same,Activity,[3],Non-toxic
same,Activity,[4],Non-toxic
same,Activity,[5],Non-toxic
CC(=O)N1CCCN(S(=O)(=O)c2ccc(F)cc2)CCC1,Activity,[16],inactive
CC(=O)NC1CCN(C(=O)c2ccccc2)C1 (stereo not drawn),Activity,[6],Non-toxic
same,Activity,[7],Non-toxic
same,Activity,[8],Non-toxic
same,Time,[9],70.3 s
same,Activity,[10],Non-toxic
CC(=O)N1CCC(NS(=O)(=O)c2ccc(F)cc2)C1 (stereo not drawn),Activity,[16],inactive
CCC(=O)NC1CCCN(C(=O)c2ccccc2)CCC1,Activity,[16],inactive
CCC(=O)N1CCC(NS(=O)(=O)c2ccc(F)cc2)C1 (stereo not drawn),Activity,[16],inactive
CCC(=O)NC1CCCN(C(=O)c2ccccc2)CC1 (stereo not drawn),Activity,[1],Non-toxic
same,Time,[2],62.7 s
same,Activity,[3],Non-toxic
same,Activity,[4],Non-toxic
same,Activity,[5],Non-toxic
CCC(=O)N1CCN(C(=O)c2ccccc2)CC1 [SUNIFIRAM],Time,[22],71 s
same,Activity,[23],Non-toxic
same,Activity,[24],Non-toxic
same,Activity,[25],Non-toxic
same,Activity,[26],Non-toxic
CC(=O)N1CCCC(NS(=O)(=O)c2ccc(F)cc2)CC1 (stereo not drawn),Activity,[1],Non-toxic
same,Time,[2],45.8 s
same,Activity,[3],Non-toxic
same,Activity,[4],Non-toxic
same,Activity,[5],Non-toxic
CCC(=O)N1CCC(NC(=O)c2ccccc2)C1 (stereo not drawn),Activity,[16],inactive
CC(=O)N1CCCN(C(=O)c2ccccc2)CCC1,Activity,[16],inactive
CC(=O)NC1CCN(S(=O)(=O)c2ccc(F)cc2)C1 (stereo not drawn),Activity,[1],Non-toxic
same,Time,[2],51 s
same,Activity,[3],Non-toxic
same,Activity,[4],Non-toxic
same,Activity,[5],Non-toxic
CC(=O)NC1CCCN(C(=O)c2ccccc2)CCC1,Activity,[16],inactive
CCC(=O)NC1CCCN(S(=O)(=O)c2ccc(F)cc2)CC1 (stereo not drawn),Activity,[6],Non-toxic
same,Activity,[7],Non-toxic
same,Activity,[8],Non-toxic
same,Time,[9],46.8 s
same,Activity,[10],Non-toxic
CCC(=O)NC1CCN(C(=O)c2ccccc2)C1 (stereo not drawn),Activity,[1],Non-toxic
same,Time,[2],45.4 s
same,Activity,[3],Non-toxic
same,Activity,[4],Non-toxic
same,Activity,[5],Non-toxic
NC(=O)CN1CCCC1=O [PIRACETAM],Activity,[27],Non-toxic
same,Activity,[28],Non-toxic
same,Activity,[29],Non-toxic
same,Activity,[30],Non-toxic
CCC(=O)NC1CCCN(S(=O)(=O)c2ccc(F)cc2)CCC1,Activity,[6],Non-toxic
same,Activity,[7],Non-toxic
same,Activity,[8],Non-toxic
same,Time,[9],72.2 s
same,Activity,[10],Non-toxic
CCC(=O)N1CCCC(NS(=O)(=O)c2ccc(F)cc2)CC1 (stereo not drawn),Time,[9],81.4 s
CC(=O)NC1CCCN(S(=O)(=O)c2ccc(F)cc2)CCC1,Activity,[1],Non-toxic
same,Time,[2],44.8 s
same,Activity,[3],Non-toxic
same,Activity,[4],Non-toxic
same,Activity,[5],Non-toxic
CCC(=O)N1CCCC(NC(=O)c2ccccc2)CC1 (stereo not drawn),Activity,[1],Non-toxic
same,Time,[2],69.4 s
same,Activity,[3],Non-toxic
same,Activity,[4],Non-toxic
same,Activity,[5],Non-toxic
CC(=O)NC1CCCN(S(=O)(=O)c2ccc(F)cc2)CC1 (stereo not drawn),Time,[2],62.7 s
same,Activity,[16],inactive
CCC(=O)N[C@@H]1CCN(S(=O)(=O)c2ccc(F)cc2)C1,Activity,[6],Non-toxic
same,Activity,[7],Non-toxic
same,Activity,[8],Non-toxic
same,Time,[9],69.4 s
same,Activity,[10],Non-toxic
